± gives the expanded uncertainty stated by the source.
Columns and labels:
[1] = 298.15 K; 101.33 kPa; Liquid; Vibrating tube method
[2] = refractive index (Na D-line) (dimensionless); settings: 298.15 K; 101.33 kPa; Liquid; refractometer
[3] = excess molar enthalpy (molar enthalpy of mixing); xn = mol fraction of the nth substance listed; settings: 298.15 K, 101 kPa, Liquid, Flow calorimetry

CC(Cl)CCl (stereo not given) [1,2-dichloropropane]
Settings | mass density [kg/m3] | refractive index
[1] | 1148.95 ± 0.46 | –
[2] | – | 1.43653 ± 0.00023

CCCCOCCOC(C)=O [2-butoxyethyl acetate]
Settings | mass density [kg/m3] | refractive index
[1] | 935.12 ± 0.3 | –
[2] | – | 1.41183 ± 0.00023

CCCCOCCOC(C)=O [2-butoxyethyl acetate] + CC(Cl)CCl
[3]
Settings | excess molar enthalpy [kcal/mol]
x2 = 0.0659 | -0.0225 ± 0.000478
x2 = 0.0985 | -0.0299 ± 0.000502
x2 = 0.1611 | -0.0499 ± 0.000621
x2 = 0.1911 | -0.0545 ± 0.000645
x2 = 0.2486 | -0.0684 ± 0.000741
x2 = 0.3032 | -0.079 ± 0.000813
x2 = 0.3549 | -0.08791 ± 0.00086
x2 = 0.4041 | -0.09455 ± 0.000908
x2 = 0.4509 | -0.09775 ± 0.000932
x2 = 0.4955 | -0.1004 ± 0.000956
x2 = 0.5585 | -0.1023 ± 0.00098
x2 = 0.5982 | -0.1015 ± 0.00098
x2 = 0.6545 | -0.09778 ± 0.000932
x2 = 0.7073 | -0.0914 ± 0.000884
x2 = 0.7568 | -0.0831 ± 0.000837
x2 = 0.8035 | -0.0727 ± 0.000765
x2 = 0.8615 | -0.0569 ± 0.000669
x2 = 0.9022 | -0.0431 ± 0.000574
x2 = 0.9531 | -0.0226 ± 0.000478

CCOCCOC(C)=O [2-ethoxyethyl ethanoate]
Settings | mass density [kg/m3] | refractive index
[1] | 967.36 ± 1 | –
[2] | – | 1.40311 ± 0.00042

CCOCCOC(C)=O [2-ethoxyethyl ethanoate] + CC(Cl)CCl
[3]
Settings | excess molar enthalpy [kcal/mol]
x2 = 0.0532 | -0.0175 ± 0.000454
x2 = 0.1067 | -0.0303 ± 0.000502
x2 = 0.1585 | -0.0476 ± 0.000598
x2 = 0.2088 | -0.0594 ± 0.000669
x2 = 0.2575 | -0.0693 ± 0.000741
x2 = 0.3049 | -0.0772 ± 0.000789
x2 = 0.351 | -0.08413 ± 0.000837
x2 = 0.3957 | -0.08934 ± 0.000884
x2 = 0.4605 | -0.09474 ± 0.000908
x2 = 0.5022 | -0.09634 ± 0.000932
x2 = 0.5428 | -0.09677 ± 0.000932
x2 = 0.6017 | -0.09524 ± 0.000932
x2 = 0.6583 | -0.09261 ± 0.000908
x2 = 0.6949 | -0.08788 ± 0.00086
x2 = 0.748 | -0.0794 ± 0.000813
x2 = 0.7991 | -0.0688 ± 0.000741
x2 = 0.8485 | -0.0565 ± 0.000669
x2 = 0.896 | -0.0419 ± 0.000574
x2 = 0.9569 | -0.0198 ± 0.000454

COCCOC(C)=O [2-methoxyethyl ethanoate]
Settings | mass density [kg/m3] | refractive index
[1] | 999.76 ± 0.3 | –
[2] | – | 1.39988 ± 0.00023

COCCOC(C)=O [2-methoxyethyl ethanoate] + CC(Cl)CCl
[3]
Settings | excess molar enthalpy [kcal/mol]
x2 = 0.0464 | -0.0141 ± 0.00043
x2 = 0.0936 | -0.0253 ± 0.000478
x2 = 0.1401 | -0.0365 ± 0.00055
x2 = 0.2084 | -0.0512 ± 0.000621
x2 = 0.253 | -0.06 ± 0.000693
x2 = 0.2969 | -0.0674 ± 0.000717
x2 = 0.3402 | -0.0748 ± 0.000765
x2 = 0.4038 | -0.08196 ± 0.000813
x2 = 0.4454 | -0.08535 ± 0.000837
x2 = 0.5066 | -0.08855 ± 0.00086
x2 = 0.5467 | -0.08953 ± 0.000884
x2 = 0.6056 | -0.08855 ± 0.00086
x2 = 0.6442 | -0.0864 ± 0.00086
x2 = 0.701 | -0.0811 ± 0.000813
x2 = 0.7566 | -0.0746 ± 0.000765
x2 = 0.811 | -0.0636 ± 0.000693
x2 = 0.8466 | -0.0549 ± 0.000645
x2 = 0.8991 | -0.0402 ± 0.000574
x2 = 0.9505 | -0.0217 ± 0.000454
